{"source": "paper PMC8205030", "about": "“Methoxy and bromo scans on N-(5-methoxyphenyl) methoxybenzenesulphonamides reveal potent cytotoxic compounds, especially against the human breast adenocarcinoma MCF7 cell line” (Journal of Enzyme Inhibition and Medicinal Chemistry, 2021)", "key": {"[1]": {"test": "Aqueous solubility (saturation shake-flask, UV)", "type": "physicochemical", "details": "aqueous buffer, thermodynamic from solid, pH 7.0 phosphate buffer, room temperature", "experimental": "The aqueous solubility was determined in a Helios-α UV-320 Spectrophotometer Thermo-Spectronic, Thermo Fischer Scientific, Waltham, MA, USA) using an approach based on the saturation shake-flask method. 1–2 mg of each selected compound was suspended in 300 µL pH 7.0 buffer and stirred for 48 h at room temperature. The resulting mixture was filtered through a […] filter to discard the insoluble residues. A scan between 270 and 400 nm for the tested compound was performed and three wavelengths of maximum absorbance were selected. Calibration curves were performed at these wavelengths and the concentration in the supernatant was measured by UV absorbance. The final value was given as the average of the three measurements."}, "HeLa cells": {"test_system": "HeLa cells", "test": "Cell cycle analysis (PI, flow cytometry), HeLa", "type": "cell-based, human", "experimental": "MCF7, HeLa, and HT-29 cell cycle analyses were performed by quantifying the DNA content by flow cytometry. Cells in the exponential growth phase at 2 × 10^4 cells/mL were seeded in 24-well plates (1 ml/well). After 24 h incubation, cells were treated with compound 25 at 87.5 or 175 nM. After 24, 48, and 72 h treatments, live and dead cells were collected and fixed in ice-cold ethanol:PBS (7:3) and stored at 4 °C for later use. Cells were rehydrated with phosphate-buffered saline (PBS), treated with 100 µg/mL RNase A (Sigma-Aldrich Co., St. Louis, MO, USA), and stained overnight in darkness at room temperature with 50 µg/mL propidium iodide (PI) (Sigma-Aldrich Co.). Cell cycle profiles were then analysed by flow cytometry using BD Accuri™ C6 Plus Flow Cytometer (BD Biosciences, San José, CA, USA). Data were analysed with BD Accuri™ C6 Software (version 1.0.264.21, BD Biosciences, San José, CA, USA) and compared to control cells treated with 0.5% (v/v) DMSO. Compounds were dissolved in DMSO and the final solvent concentrations never exceeded 0.5% (v/v)."}, "HT-29 cells": {"test_system": "HT-29 cells", "test": "Apoptotic cell death quantification (Annexin V-FITC/PI), HT-29", "type": "cell-based, human", "details": "for Early apoptosis / Late apoptosis / Live (AnV–/PI–) / Necrosis: 72 h; for Apoptotic response: HT-29, 72 h", "experimental": "MCF7, HeLa, and HT-29 apoptotic cells were quantified using an Annexin V-FITC/PI apoptosis detection kit (Immunostep, Salamanca, Spain) according to the manufacturer’s guidelines. 1.5 ml/well of cells in the exponential growth phase at 2 × 10^4 cells/mL were seeded onto 12-well plates and left to attach overnight. After 24 h incubation, cells were treated with compound 25 at 87.5 or 175 nM. 72 h post-treatment, attached and floating cells of treated and untreated wells were collected, centrifuged, resuspended in the Annexin V binding buffer, and stained with Annexin V-FITC/PI. Cells were then incubated in darkness at room temperature for 15 min and a total of 30,000 cells were acquired and analysed using the BD Accuri™ C6 Plus Flow Cytometer and Software (version 1.0.264.21, BD Biosciences, San José, CA, USA), respectively. Compounds were dissolved in DMSO and the final solvent concentrations never exceeded 0.5% (v/v). Control wells included cells with 0.5% (v/v) DMSO."}, "[2]": {"test_system": "microtubule network of HeLa cells", "test": "Immunofluorescence of microtubule network, HeLa", "type": "cell-based, human", "details": "175 nM, 72 h, confocal microscopy", "experimental": "MCF7, HeLa, and HT-29 cells were grown on round glass coverslips coated with poly-L-lysine (12 mm diameter). To reach appropriate cell confluence, coverslips were manipulated in 6-well plates (3 coverslips/well) seeding 3 ml/well of cells in the exponential growth phase at 2 × 10^4 cells/mL. After 24 h incubation, cells were treated with compound 25 at 175 nM and incubated for 72 h. Cells were washed with PBS, fixed with 4% formaldehyde in PBS for 10 min, permeabilized with 0.5% Triton X-100 (Boehringer Mannheim, Ingelheimam Rhein, Germany) in PBS for 10 min, and blocked with 10% BSA in PBS for 30 min. Then, coverslips were incubated with anti-α-tubulin mouse monoclonal antibody (diluted 1:200 in 3% BSA/PBS) (Sigma-Aldrich Co.) and anti-SQSTM1/p62 rabbit monoclonal antibody (diluted 1:100 in 3% BSA/PBS) (Abcam) for 1 h 30 min. After PBS washing, coverslips were incubated with fluorescent secondary antibodies Alexa Fluor 488 goat anti-mouse IgG and Alexa Fluor 594 anti-rabbit (both diluted 1:400 in 1% BSA/PBS) (Molecular Probes, Invitrogen, Thermo Fischer Scientific) for 1 h in darkness. […] Cells were analysed by confocal microscopy using a LEICA SP5 microscope DMI-6000V model coupled to a LEICA LAS AF software computer."}}, "data": [{"smiles": "COc1ccc(S(=O)(=O)N(CC#N)c2cc(OC)c(Br)cc2OC)cc1", "note": "[Compound 25, N-(4-bromo-2,5-dimethoxyphenyl)-N-(cyanomethyl)-4-methoxybenzenesulphonamide]", "values": [{"measurement": "solubility at 48 h", "setting": "[1]", "result": 1, "unit": "µg/mL"}, {"measurement": "Cells at G2/M phase", "setting": "HeLa cells; 87.5 nM, 24 h", "result": 82, "unit": "%"}, {"measurement": "Cells at G2/M phase", "setting": "HeLa cells; 87.5 nM, 48 h", "result": 54, "unit": "%"}, {"measurement": "subG0/G1 population", "setting": "HeLa cells; 87.5 nM, 48 h", "result": 34, "unit": "%"}, {"measurement": "Cells at G2/M phase", "setting": "HeLa cells; 87.5 nM, 72 h", "result": 41, "unit": "%"}, {"measurement": "Cells at G2/M phase", "setting": "HeLa cells; 175 nM, 24 h", "result": 86, "unit": "%"}, {"measurement": "Cells at G2/M phase", "setting": "HeLa cells; 175 nM, 48 h", "result": 48, "unit": "%"}, {"measurement": "subG0/G1 population", "setting": "HeLa cells; 175 nM, 48 h", "result": 29, "unit": "%"}, {"measurement": "Cells at G2/M phase", "setting": "HeLa cells; 175 nM, 72 h", "result": 49, "unit": "%"}, {"measurement": "subG0/G1 population", "setting": "HeLa cells; 72 h, one value printed for 87.5 and 175 nM", "result": 38, "unit": "%"}, {"measurement": "Early apoptosis", "setting": "HT-29 cells; HT-29, 87.5 nM", "result": 16.4, "unit": "%"}, {"measurement": "Late apoptosis", "setting": "HT-29 cells; HT-29, 87.5 nM", "result": 6.8, "unit": "%"}, {"measurement": "Live (AnV–/PI–)", "setting": "HT-29 cells; HT-29, 87.5 nM", "result": 76.2, "unit": "%"}, {"measurement": "Necrosis", "setting": "HT-29 cells; HT-29, 87.5 nM", "result": 0.7, "unit": "%"}, {"measurement": "Early apoptosis", "setting": "HT-29 cells; HT-29, 175 nM", "result": 20.4, "unit": "%"}, {"measurement": "Late apoptosis", "setting": "HT-29 cells; HT-29, 175 nM", "result": 15.3, "unit": "%"}, {"measurement": "Live (AnV–/PI–)", "setting": "HT-29 cells; HT-29, 175 nM", "result": 61.7, "unit": "%"}, {"measurement": "Necrosis", "setting": "HT-29 cells; HT-29, 175 nM", "result": 2.5, "unit": "%"}, {"measurement": "Apoptotic response", "setting": "HT-29 cells; lower end of printed span (87.5 nM)", "result": 23, "unit": "%"}, {"measurement": "Apoptotic response", "setting": "HT-29 cells; upper end of printed span (175 nM)", "result": 36, "unit": "%"}, {"measurement": "Effect on microtubule network", "setting": "[2]", "result": "disrupted the microtubule network"}]}]}
